Experimental data from PubChem BioAssay (NCI).
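These data come from cells grown in 96-well plates and exposed to compound for 48 hours at five concentrations. TGI: total growth inhibition.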

Tests used:
Assay in all cases: DTP human tumour cell line panel, 48 h
ACHN renal = tested on: ACHN renal
LOX IMVI melanoma = tested on: LOX IMVI melanoma
UACC-62 melanoma = tested on: UACC-62 melanoma
SW-620 colon = tested on: SW-620 colon
MOLT-4 leukemia = tested on: MOLT-4 leukemia
OVCAR-4 ovarian = tested on: OVCAR-4 ovarian
SN12C renal = tested on: SN12C renal
SK-MEL-2 melanoma = tested on: SK-MEL-2 melanoma

Structure (SMILES): CN(C)CN(C)c1nc(N(C)C)nc(N(C)C)n1
- TGI (ACHN renal): > 100 µM
- TGI (LOX IMVI melanoma): > 100 µM
- TGI (UACC-62 melanoma): > 100 µM
- TGI (SW-620 colon): > 100 µM
- TGI (MOLT-4 leukemia): > 100 µM
- TGI (OVCAR-4 ovarian): > 100 µM
- TGI (SN12C renal): > 100 µM
- TGI (SK-MEL-2 melanoma): > 100 µM

Structure (SMILES): O=C(N[C@H]1CC2(C=C(I)C(=O)C(I)=C2)OC1=O)OCc1ccccc1
- TGI (ACHN renal): 32.8 µM
- TGI (LOX IMVI melanoma): 30.6 µM
- TGI (UACC-62 melanoma): 30.2 µM
- TGI (OVCAR-4 ovarian): 33.5 µM
- TGI (SN12C renal): 32.3 µM

Structure (SMILES): NC(=O)N1N=C2c3ccccc3OC[C@H]2[C@@H]1c1ccccc1
- TGI (ACHN renal): > 100 µM
- TGI (LOX IMVI melanoma): > 100 µM
- TGI (UACC-62 melanoma): 19.9 µM
- TGI (SW-620 colon): > 100 µM
- TGI (MOLT-4 leukemia): 97.2 µM
- TGI (OVCAR-4 ovarian): > 100 µM
- TGI (SN12C renal): > 100 µM
- TGI (SK-MEL-2 melanoma): > 100 µM

Structure (SMILES): O=C(Cn1ccnc1[N+](=O)[O-])NCc1ccc(F)cc1
- TGI (ACHN renal): > 100 µM
- TGI (LOX IMVI melanoma): > 100 µM
- TGI (UACC-62 melanoma): > 100 µM
- TGI (SW-620 colon): > 100 µM
- TGI (MOLT-4 leukemia): > 100 µM
- TGI (OVCAR-4 ovarian): > 100 µM
- TGI (SN12C renal): > 100 µM
- TGI (SK-MEL-2 melanoma): > 100 µM

Structure (SMILES): O=C(NCCOC(=O)CCCCCCCCC(=O)OCCNC(=O)NC(=O)c1cn(Cc2ccccc2)c(=O)[nH]c1=O)NC(=O)c1cn(Cc2ccccc2)c(=O)[nH]c1=O
- TGI (ACHN renal): > 100 µM
- TGI (LOX IMVI melanoma): > 100 µM
- TGI (UACC-62 melanoma): > 100 µM
- TGI (SW-620 colon): > 100 µM
- TGI (MOLT-4 leukemia): > 100 µM
- TGI (OVCAR-4 ovarian): > 100 µM
- TGI (SN12C renal): > 100 µM
- TGI (SK-MEL-2 melanoma): > 100 µM

Structure (SMILES): Nc1cccc(C(=O)/C=C/c2ccccc2O)c1
- TGI (ACHN renal): > 100 µM
- TGI (LOX IMVI melanoma): > 100 µM
- TGI (UACC-62 melanoma): > 100 µM
- TGI (SW-620 colon): 29.6 µM
- TGI (MOLT-4 leukemia): > 100 µM
- TGI (SN12C renal): > 100 µM
- TGI (SK-MEL-2 melanoma): > 100 µM

Structure (SMILES): Cc1cc2nc3c(C(OC4OC(CO)C(O)C(O)C4O)C(O)CO)nn(-c4ccc(F)cc4)c3nc2cc1C (configuration not stated)
- TGI (ACHN renal): > 100 µM
- TGI (LOX IMVI melanoma): > 100 µM
- TGI (UACC-62 melanoma): > 100 µM
- TGI (MOLT-4 leukemia): > 100 µM
- TGI (OVCAR-4 ovarian): > 100 µM
- TGI (SN12C renal): > 100 µM

Structure (SMILES): COc1cc2ccc(CC(=O)O)cc2cc1OC
- TGI (ACHN renal): > 100 µM
- TGI (UACC-62 melanoma): > 100 µM
- TGI (SW-620 colon): > 100 µM
- TGI (MOLT-4 leukemia): > 100 µM
- TGI (OVCAR-4 ovarian): > 100 µM
- TGI (SN12C renal): > 100 µM
- TGI (SK-MEL-2 melanoma): > 100 µM

Structure (SMILES): Cc1ccc(-n2cc(/C(N)=N/O)c3ccccc3c2=O)cc1
- TGI (ACHN renal): > 100 µM
- TGI (LOX IMVI melanoma): > 100 µM
- TGI (UACC-62 melanoma): > 100 µM
- TGI (SW-620 colon): > 100 µM
- TGI (MOLT-4 leukemia): > 100 µM
- TGI (SN12C renal): > 100 µM

Structure (SMILES): O=S1(=O)CS(=O)(=O)OCCCCCO1
- TGI (ACHN renal): > 100 µM
- TGI (LOX IMVI melanoma): > 100 µM
- TGI (UACC-62 melanoma): > 100 µM
- TGI (SW-620 colon): > 100 µM
- TGI (OVCAR-4 ovarian): > 100 µM
- TGI (SN12C renal): > 100 µM
- TGI (SK-MEL-2 melanoma): > 100 µM

Structure (SMILES): O=C(CC/C(CC(=O)c1ccc(Cl)cc1)=N\O)Nc1cccc(Cl)c1
- TGI (ACHN renal): > 100 µM
- TGI (LOX IMVI melanoma): > 100 µM
- TGI (UACC-62 melanoma): > 100 µM
- TGI (SW-620 colon): > 100 µM
- TGI (MOLT-4 leukemia): > 100 µM
- TGI (OVCAR-4 ovarian): > 100 µM
- TGI (SN12C renal): > 100 µM
- TGI (SK-MEL-2 melanoma): > 100 µM

Structure (SMILES): Cc1ccccc1NC(=O)C(=O)CC(=O)c1sc(-n2nc(-c3ccccc3)cc2-c2ccccc2)nc1C
- TGI (ACHN renal): > 100 µM
- TGI (LOX IMVI melanoma): > 100 µM
- TGI (UACC-62 melanoma): > 100 µM
- TGI (SW-620 colon): > 100 µM
- TGI (MOLT-4 leukemia): > 100 µM
- TGI (OVCAR-4 ovarian): > 100 µM
- TGI (SN12C renal): > 100 µM
- TGI (SK-MEL-2 melanoma): > 100 µM

Structure (SMILES): c1ccc2c(c1)n1nnnc1c1nnnn21
- TGI (ACHN renal): > 100 µM
- TGI (LOX IMVI melanoma): > 100 µM
- TGI (UACC-62 melanoma): > 100 µM
- TGI (SW-620 colon): > 100 µM
- TGI (MOLT-4 leukemia): > 100 µM
- TGI (OVCAR-4 ovarian): > 100 µM
- TGI (SN12C renal): > 100 µM
- TGI (SK-MEL-2 melanoma): > 100 µM

Structure (SMILES): Clc1ccc(/C=C/c2csnn2)cc1
- TGI (ACHN renal): > 100 µM
- TGI (LOX IMVI melanoma): > 100 µM
- TGI (UACC-62 melanoma): > 100 µM
- TGI (SW-620 colon): > 100 µM
- TGI (MOLT-4 leukemia): > 100 µM
- TGI (OVCAR-4 ovarian): > 100 µM
- TGI (SN12C renal): > 100 µM
- TGI (SK-MEL-2 melanoma): > 100 µM

Structure (SMILES): C=C(/C=C/C=C(\CO)CCC=C(C)C)[C@H]1CCC2([C@H](CCCO)/C(=C(/C)C=O)CC[C@]2(C)O)[C@H]1O (some centres not stated)
- TGI (ACHN renal): > 100 µM
- TGI (LOX IMVI melanoma): > 100 µM
- TGI (UACC-62 melanoma): > 100 µM
- TGI (SW-620 colon): > 100 µM
- TGI (MOLT-4 leukemia): > 100 µM
- TGI (OVCAR-4 ovarian): > 100 µM
- TGI (SK-MEL-2 melanoma): > 100 µM

Structure (SMILES): O=C(Nc1c(Cl)cc([N+](=O)[O-])cc1Cl)C(=O)C(C(=O)c1ccncc1)C1OC(=O)c2ccccc21 (configuration not stated)
- TGI (ACHN renal): > 100 µM
- TGI (LOX IMVI melanoma): > 100 µM
- TGI (UACC-62 melanoma): > 100 µM
- TGI (SW-620 colon): > 100 µM
- TGI (MOLT-4 leukemia): > 100 µM
- TGI (OVCAR-4 ovarian): > 100 µM
- TGI (SN12C renal): > 100 µM

Structure (SMILES): O=C1Cc2c([nH]c3ccccc23)-c2cc(Br)ccc2N1
- TGI (ACHN renal): > 100 µM
- TGI (LOX IMVI melanoma): > 100 µM
- TGI (SW-620 colon): > 100 µM
- TGI (MOLT-4 leukemia): > 100 µM
- TGI (OVCAR-4 ovarian): > 100 µM
- TGI (SN12C renal): > 100 µM
- TGI (SK-MEL-2 melanoma): > 100 µM

Structure (SMILES): CC1(C)O[C@@H](CCl)C[C@@H](C#N)O1
- TGI (ACHN renal): > 100 µM
- TGI (LOX IMVI melanoma): > 100 µM
- TGI (UACC-62 melanoma): > 100 µM
- TGI (SW-620 colon): > 100 µM
- TGI (MOLT-4 leukemia): > 100 µM
- TGI (OVCAR-4 ovarian): > 100 µM
- TGI (SK-MEL-2 melanoma): > 100 µM

Structure (SMILES): COc1ccc(C2NC(c3ccc(OC)cc3)C(C)C(=O)C2C)cc1 (configuration not stated)
- TGI (ACHN renal): > 100 µM
- TGI (LOX IMVI melanoma): > 100 µM
- TGI (UACC-62 melanoma): > 100 µM
- TGI (MOLT-4 leukemia): > 100 µM
- TGI (OVCAR-4 ovarian): > 100 µM
- TGI (SN12C renal): > 100 µM
- TGI (SK-MEL-2 melanoma): > 100 µM

Structure (SMILES): NC(=O)C1C(=O)Oc2cccnc21 (configuration not stated)
- TGI (ACHN renal): > 100 µM
- TGI (LOX IMVI melanoma): > 100 µM
- TGI (UACC-62 melanoma): > 100 µM
- TGI (SW-620 colon): > 100 µM
- TGI (MOLT-4 leukemia): > 100 µM
- TGI (SN12C renal): > 100 µM

Structure (SMILES): COc1ccc(/C(C#N)=C2/O/C(=N/N)C(c3ccc(OC)c(OC)c3)C2=O)cc1OC (configuration not stated)
- TGI (ACHN renal): > 100 µM
- TGI (LOX IMVI melanoma): > 100 µM
- TGI (UACC-62 melanoma): > 100 µM
- TGI (SW-620 colon): > 100 µM
- TGI (MOLT-4 leukemia): > 100 µM
- TGI (SN12C renal): > 100 µM
- TGI (SK-MEL-2 melanoma): > 100 µM

Structure (SMILES): Cc1c(C(=O)/C=C/c2ccc3c(c2)OCO3)[n+](=O)c2ccccc2n1[O-]
- TGI (ACHN renal): > 100 µM
- TGI (LOX IMVI melanoma): 66.3 µM
- TGI (UACC-62 melanoma): 75.2 µM
- TGI (SW-620 colon): > 100 µM
- TGI (MOLT-4 leukemia): 73.9 µM
- TGI (OVCAR-4 ovarian): > 100 µM
- TGI (SN12C renal): > 100 µM
